Measured values: patent US8227421B2, “Fluorinated GHRH antagonists” (University of Miami, priority 2009, dated 2012)

Test system: PC-3 human hormone-independent prostate cancer
Experiment: Effect of treatment with GH-RH antagonists on PC-3 human prostate cancer xenografts in nude mice
Assay type: in vivo
Conditions: male nude mice, s.c. PC-3 xenografts, 2 ug/day s.c.
Procedure: Male nude mice were implanted s.c. with 3 mm3 pieces of PC-3 human hormone-independent prostate cancer tissue on both flanks. When tumors reached a volume of approximately 50 mm3, the mice were divided into 14 experimental groups with 8 to 10 animals in each group and received single daily injections for 28 as follows: 1. Control (vehicle solution); 2. P-12211 (2 μg/day s.c.); 3. P-12307 (2 μg/day s.c.); 4. P-12317 (2 μg/day s.c.); 5. P-12408 (2 μg/day s.c.); 6. P-12409 (2 μg/day s.c.); 7. P-12457 (2 μg/day s.c.); 8. P-12473 (2 μg/day s.c.); 9. P-12479 (2 μg/day s.c.); 10. P-12600 (2 μg/day s.c.); 11. P-12601 (2 μg/day s.c.); 12. P-12602 (2 μg/day s.c.); 13. P-12603 (2 μg/day s.c.); and 14. P-12610 (2 μg/day s.c.).
The inhibitory effect of P-12473, P-12479, P-12600, P-12601, P-12602, and P-12610 were statistically significant (p<0.001).
Effect of Treatment with GH-RH Antagonists on PC-3 Human Prostate Cancer Xenografts in Nude Mice

“[PhAc^0-Tyr^1, D-Arg^2, Cpa^6, Ala^8, Har^9, Fpa5^10, His^11, Orn^12, Abu^15, His^20, Orn^21, Nle^27, D-Arg^28, Har^29, Ada^30]hGH-RH(1-30)NH2 [Peptide P-12610]” was tested. Which “Tumor Growth after 4 weeks (%)” value (single daily injections for 28) did it give?
The value was 474.98%.

What about the “Tumor growth inhibition after 4 weeks (%)” value (single daily injections for 28, versus control) of the same substance?
The value was 77.78%.
